We go through 36 compounds from patent US7829063B2, “Development of molecular imaging probes for carbonic anhydrase-IX using click chemistry” (Siemens Medical Solutions USA, Inc., priority 2007, dated 2010).

Assay [1] addresses T1, CA-IX (Homo sapiens, UniProt Q16790).
T1 construct: His tag (C); purchased R&D Systems Inc. 2188-CA; host or cells: mouse myeloma cell line NS0
The assay can be described thus: Binding affinity (Kd) determination for CA-IX inhibitors, DNSA fluorescence competition assay, Scatchard plots. The note with it: Table 3. On the procedure:
General. […] The human red blood cells were obtained from Research Blood Components, LLC. All absorbance measurements were performed on a SPECTRA MAX M2 plate reader at 25° C. The LC/MS analyses were performed on an Agilent 1100 series LC/MSD (SL) using a 30×2.1 mm Zorbax C8 column with a Phenomenex C18 pre-column. Compound detection was accomplished by electrospray mass spectroscopy in positive selected ion mode (LC/MS-SIM). The elution solvents were acetonitrile and water, contained 0.05% TFA. Nuclear magnetic resonance (NMR) spectra were obtained on a Bruker AMX 300 MHz spectrometer or a Varian 400. 19F NMR spectra were recorded on a Bruker AMX 282.35 MHz or a Varian 400 spectrometer. The mass spectra were recorded on an Agilent 1100 series LC/MSD with electrospray mass spectroscopic detection. Flash column chromatography was performed on Merck silica gel (40-63 μm) using the solvent system indicated. The radiochemical and chemical purities were analyzed by RP-HPLC.
General Procedure of Binding Affinity (Ka) Determination for CA-IX Inhibitors
The assay was based on the observation that the only fluorescence signal detected at 460 nm upon excitation at 290 nm, an absorption […] for DNSA, was that of the DNSA.CA complex. […] The latter were developed for each test compound using mass balance for calculating the concentration of CA bound to DNSA [DNSA.CA], bound to the non-fluorescent sample [CA.Inh] and free CA [CA] in solution. The Kd values were determined from Scatchard plots using the equation below as described by Whitesides et al. [CA.Inh]/[CA]tot.[Inh]=K11^inh−K11^inh{[CA.Inh]+[CA.DNSA]}/([CA]tot)
The terms [CA.DNSA], [CA.Inh], and free CA were calculated using the mass balance based on the known values for the dissociation constant of CA.DNSA and the total concentration of CA in each reaction.

The target of assay [2] is T1, CA-IX. Nature of the assay: CA-IX combinatorial library screening, competitive fluorescence-based assay with dansylamide (DNSA). The format is binding. The note with it: sample concentrations 100 nM and 1000 nM, DNSA 200 μM, screening at 1 μM; for inhibition at 1 µM: 1 h. The method in brief:
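Recombinant His-tagged CA-IX (NS0-expressed) in phosphate buffer pH 7.4 with test compound at 100 nM or 1000 nM; competitive displacement started with 200 μM dansylamide (stock concentration). After 1 h at 25 °C, fluorescence read at 460 nm (excitation 290 nm).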

Setting [3] is: Table 2, Libraries 4-7, read-out: In Vitro Binding Assay (Library (Screening)).

Read-outs that look alike come from different tables or passages of the source.

`CC(C)C(C(=O)N[C@@H](Cc1ccc(OC(CO)CF)cc1)C(=O)O)n1cc(COc2ccc3nc(S(N)(=O)=O)sc3c2)nn1` (single isomer, unassigned) [GGC121A] had an equilibrium dissociation constant (Kd) in assay [1] of 11 nM.

With `CC(C)C(C(=O)N[C@@H](Cc1ccc(OC(CO)CF)cc1)C(=O)O)n1cc(COc2ccc3nc(S(N)(=O)=O)sc3c2)nn1` (single isomer, unassigned) [GGC121B], in assay [1], binding was characterised by a dissociation constant (Kd) of 13 nM.

In the case of `NS(=O)(=O)c1nc2cc(OCc3cn(C(CCO)C(=O)NC(CSCc4cccc(OCCF)c4)C(=O)O)nn3)ccc2s1` (single isomer, unassigned) [VM2-107a], the affinity in assay [1], expressed as Kd, was 10 nM.

In assay [1], `NS(=O)(=O)c1nc2cc(OCc3cn(C(CCO)C(=O)NC(CSCc4cccc(OCCF)c4)C(=O)O)nn3)ccc2s1` (single isomer, unassigned) [VM2-107b] gave a Kd of 5 nM.

The compound `CC(C)C(C(=O)NC(COCc1cccc(OCCO)c1)C(=O)O)n1cc(COc2ccc3nc(S(N)(=O)=O)sc3c2)nn1` (single isomer, unassigned) [VM3-165A] registered an equilibrium dissociation constant (Kd) in assay [1] of 5 nM. This lies in the single-digit nanomolar range.

Turning to `CC(C)C(C(=O)NC(COCc1cccc(OCCO)c1)C(=O)O)n1cc(COc2ccc3nc(S(N)(=O)=O)sc3c2)nn1` (single isomer, unassigned) [VM3-165B], in assay [1], binding was characterised by a dissociation constant (Kd) of 11 nM.

Consider `NS(=O)(=O)c1nc2ccc(OCc3cn(C(Cc4ccc(F)cc4)C(=O)NC(COCc4cccc(OCCO)c4)C(=O)O)nn3)cc2s1` (single isomer, unassigned) [VM3-167A], for which the dissociation constant (Kd) in assay [1] turned out to be 5 nM.

Take `NS(=O)(=O)c1nc2ccc(OCc3cn(C(Cc4ccc(F)cc4)C(=O)NC(COCc4cccc(OCCO)c4)C(=O)O)nn3)cc2s1` (single isomer, unassigned) [VM3-167B]: the equilibrium dissociation constant (Kd) in assay [1] was 10 nM.

Take `CC(C)C(C(=O)NC(Cc1ccc(OCC(O)CF)cc1)C(=O)O)n1cc(COc2ccc3nc(S(N)(=O)=O)sc3c2)nn1` (single isomer, unassigned) [VM4047a]: the Kd in assay [1] worked out at 5 nM.

Take `CC(C)[C@H](C(=O)N[C@H](Cc1ccc(OCC(O)CF)cc1)C(=O)O)n1cc(COc2ccc3nc(S(N)(=O)=O)sc3c2)nn1` (single isomer, unassigned) [VM4047b]: in assay [1], binding was characterised by a dissociation constant (Kd) of 11 nM.

`NS(=O)(=O)c1nc2ccc(OCc3cn([C@@H](Cc4ccc(OCCF)cc4)C(=O)O)nn3)cc2s1` [BD2-09, (S)-3-(4-(2-fluoroethoxy)phenyl)-2-(4-((2-sulfamoylbenzo[d]thiazol-6-yloxy)methyl)-1H-1,2,3-triazol-1-yl)propanoic acid] had a Kd in assay [1] of 17 nM.

In assay [1], `NS(=O)(=O)c1nc2ccc(OCc3cn([C@@H](CCCCNC(=O)CCC(=O)O)C(=O)NCc4ccc(C(F)(F)F)cc4)nn3)cc2s1` [BD2-47, (S)-4-oxo-4-(6-oxo-5-(4-((2-sulfamoylbenzo[d]thiazol-6-yloxy)methyl)-1H-1,2,3-triazol-1-yl)-6-(4-(trifluoromethyl)benzylamino)hexylamino)butanoic acid] came in with a dissociation constant (Kd) of 20 nM.

With `NS(=O)(=O)c1nc2ccc(OCc3cn(CC(=O)N(CC(=O)O)Cc4ccc(C(F)(F)F)cc4)nn3)cc2s1` [BD3-36, 2-(2-(4-((2-sulfamoylbenzo[d]thiazol-6-yloxy)methyl)-1H-1,2,3-triazol-1-yl)-N-(4-(trifluoromethyl)benzyl)acetamido)acetic acid], the Kd in assay [1] came to 14 nM.

On to `NS(=O)(=O)c1nc2ccc(OCc3cn(CC(=O)N[C@H](CSCc4cccc(OCCn5cc(CCCF)nn5)c4)C(=O)O)nn3)cc2s1` [BW2-27, (S)-3-(3-(2-(4-(3-fluoropropyl)-1H-1,2,3-triazol-1-yl)ethoxy)benzylthio)-2-(2-(4-((2-sulfamoylbenzo[d]thiazol-6-yloxy)methyl)-1H-1,2,3-triazol-1-yl)acetamido)propanoic acid], for which the Kd in assay [1] is 10 nM.

Compound `COC(=O)[C@@H](CSCc1cccc(OCCOCCOCCF)c1)NC(=O)Cn1cc(COc2ccc3nc(S(N)(=O)=O)sc3c2)nn1` [BW2-41, (S)-methyl 3-(3-(2-(2-(2-fluoroethoxy)ethoxy)ethoxy)benzylthio)-2-(2-(4-((2-sulfamoylbenzo[d]thiazol-6-yloxy)methyl)-1H-1,2,3-triazol-1-yl)acetamido)propanoate] had an equilibrium dissociation constant (Kd) in assay [1] of 5 nM. Against the preceding compound, the Kd is about 2-fold lower.

Turning to `NS(=O)(=O)c1nc2ccc(OCc3cn(CC(=O)N[C@H](CSCc4cccc(OCCOCCOCCF)c4)C(=O)O)nn3)cc2s1` [BW2-45, (S)-3-(3-(2-(2-(2-fluoroethoxy)ethoxy)ethoxy)benzylthio)-2-(2-(4-((2-sulfamoylbenzo[d]thiazol-6-yloxy)methyl)-1H-1,2,3-triazol-1-yl)acetamido) propanoic acid], the Kd in assay [1] came out at 5 nM.

The compound `COC(=O)[C@H](Cc1ccc(C(F)(F)F)cc1)NC(=O)[C@H](C(C)C)n1cc(COc2ccc3nc(S(N)(=O)=O)sc3c2)nn1` [BW-96, (S)-methyl 2-((S)-3-methyl-2-(4-((2-sulfamoylbenzo[d]thiazol-6-yloxy)methyl)-1H-1,2,3-triazol-1-yl)butanamido)-3-(4-(trifluoromethyl)phenyl) propanoate] returned a Kd in assay [1] of 1.7 nM.

`CC1(C)O[C@@H](CF)[C@H](COc2ccc(CC(C(=O)NC(Cc3ccc(C(F)(F)F)cc3)C(=O)O)n3cc(COc4ccc5nc(S(N)(=O)=O)sc5c4)nn3)cc2)O1` (stereo partly drawn) [BW-139-1A]: in assay [1], binding was characterised by a dissociation constant (Kd) of 1.7 nM.

As to `CC1(C)O[C@@H](CF)[C@H](COc2ccc(CC(C(=O)NC(Cc3ccc(C(F)(F)F)cc3)C(=O)O)n3cc(COc4ccc5nc(S(N)(=O)=O)sc5c4)nn3)cc2)O1` (stereo partly drawn) [BW-369-1B], the dissociation constant Kd in assay [1] came to 2.5 nM.

Consider `CCOC(=O)C(Cc1ccccc1)NC(=O)[C@H](Cc1ccccc1)n1cc(COc2ccc3nc(S(N)(=O)=O)sc3c2)nn1` (stereo partly drawn) [DHK-2-59], for which, in assay [2] (setting [3]), the inhibition at 1 µM is below 40%.

As to `COC(=O)C(NC(=O)[C@H](Cc1ccccc1)n1cc(COc2ccc3nc(S(N)(=O)=O)sc3c2)nn1)C(C)C` (stereo partly drawn) [DHK-2-60], the inhibition at 1 µM in assay [2] (setting [3]) was below 40%.

As for `COC(=O)C(C)NC(=O)[C@H](Cc1ccccc1)n1cc(COc2ccc3nc(S(N)(=O)=O)sc3c2)nn1` (stereo partly drawn) [DHK-2-61], the “In Vitro Binding Assay (Library Screening)” value (from here on “In Vitro Binding Assay”) in assay [2] (Table 2, Libraries 4-7) was “√”.

For the compound `NS(=O)(=O)c1nc2ccc(OCc3cn([C@@H](Cc4ccccc4)C(=O)NCc4ccccn4)nn3)cc2s1` [DHK-2-62], in assay [2] (setting [3]), the inhibition at 1 µM is below 40%.

In the case of `NS(=O)(=O)c1nc2ccc(OCc3cn([C@@H](Cc4ccccc4)C(=O)NC4CCCCC4)nn3)cc2s1` [DHK-2-63], the inhibition at 1 µM in assay [2] (setting [3]) is below 40%.

`NS(=O)(=O)c1nc2ccc(OCc3cn([C@@H](Cc4ccccc4)C(=O)NCC4CC4)nn3)cc2s1` [DHK-2-64]: in assay [2] (setting [3]), the inhibition at 1 µM is below 40%.

Consider `NS(=O)(=O)c1nc2ccc(OCc3cn([C@@H](Cc4ccccc4)C(=O)NCCCO)nn3)cc2s1` [DHK-2-65], for which the inhibition at 1 µM in assay [2] (setting [3]) is below 40%.

Take `Cc1onc(-c2ccccc2)c1CNC(=O)[C@H](Cc1ccccc1)n1cc(COc2ccc3nc(S(N)(=O)=O)sc3c2)nn1` [DHK-2-66]: in assay [2] (Table 2, Libraries 4-7), the “In Vitro Binding Assay” value was “√ √”.

Regarding `CCOC(=O)CCN(Cc1ccco1)C(=O)[C@H](Cc1ccccc1)n1cc(COc2ccc3nc(S(N)(=O)=O)sc3c2)nn1` [DHK-2-67], in assay [2] (setting [3]), the inhibition at 1 µM was below 40%.

Consider `CCOC(=O)C1CCN(C(=O)[C@H](Cc2ccccc2)n2cc(COc3ccc4nc(S(N)(=O)=O)sc4c3)nn2)CC1` [DHK-2-68], for which, in assay [2] (Table 2, Libraries 4-7), the “In Vitro Binding Assay” value is recorded as “√”.

Consider `NS(=O)(=O)c1nc2ccc(OCc3cn([C@@H](Cc4ccccc4)C(=O)N4CCN(CCO)CC4)nn3)cc2s1` [DHK-2-69], for which the inhibition at 1 µM in assay [2] (setting [3]) is below 40%.

For the compound `NS(=O)(=O)c1nc2ccc(OCc3cn([C@@H](Cc4ccccc4)C(=O)N[C@@H]4c5ccccc5C[C@@H]4O)nn3)cc2s1` [DHK-2-70], in assay [2] (setting [3]), the inhibition at 1 µM was below 40%.

On to `NS(=O)(=O)c1nc2ccc(OCc3cn([C@@H](Cc4ccccc4)C(=O)NCC4COc5ccccc5O4)nn3)cc2s1` (stereo partly drawn) [DHK-2-71], for which the “In Vitro Binding Assay” value in assay [2] (Table 2, Libraries 4-7) is on record as “√”.

Consider `NS(=O)(=O)c1nc2ccc(OCc3cn([C@@H](Cc4ccccc4)C(=O)N4CCC(N5CCCC5)CC4)nn3)cc2s1` [DHK-2-72], for which, in assay [2] (setting [3]), the inhibition at 1 µM is below 40%.

Consider `Cn1c(CNC(=O)[C@H](Cc2ccccc2)n2cc(COc3ccc4nc(S(N)(=O)=O)sc4c3)nn2)nc2ccccc21` [DHK-2-73], for which, in assay [2] (setting [3]), the inhibition at 1 µM is below 40%.

Regarding `NS(=O)(=O)c1nc2ccc(OCc3cn([C@@H](Cc4ccccc4)C(=O)NCCN4CCN(Cc5ccccc5)CC4)nn3)cc2s1` [DHK-2-74], in assay [2] (setting [3]), the inhibition at 1 µM is below 40%.

Take `CC(C)C[C@@H](C(=O)NCc1ccccc1)n1cc(COc2ccc3nc(S(N)(=O)=O)sc3c2)nn1` [DIIK118]: in assay [2] (Table 1, Libraries 1-3, read-out: In Vitro Binding Assay (Library Screening)), the inhibition at 1 µM is below 40%.

A word on the Kd: it is the constant that tells how readily two partners part at equilibrium. A high value points to a looser complex.
